Columns and labels:
[1] = species: Homo sapiens; experiment: IC50 ratio between CDK4 and GSK-3
[2] = species: Homo sapiens; experiment: IC50 ratio between PKCbeta II and GSK-3
[3] = target: Glycogen synthase kinase-3 (Homo sapiens, UniProt P49840+P49841); experiment: Inhibitory concentration against the Glycogen synthase kinase-3; assay type: protein assay
[4] = target: Glycogen synthase kinase-3 beta (Homo sapiens, UniProt P49841); experiment: Inhibitory concentration to inhibit Ser396 phosphorylation of tau, a natural substrate of GSK-3 in SY5Y cells; assay type: functional, cell-based
Chain of Glycogen synthase kinase-3 beta (P49841 whole entry): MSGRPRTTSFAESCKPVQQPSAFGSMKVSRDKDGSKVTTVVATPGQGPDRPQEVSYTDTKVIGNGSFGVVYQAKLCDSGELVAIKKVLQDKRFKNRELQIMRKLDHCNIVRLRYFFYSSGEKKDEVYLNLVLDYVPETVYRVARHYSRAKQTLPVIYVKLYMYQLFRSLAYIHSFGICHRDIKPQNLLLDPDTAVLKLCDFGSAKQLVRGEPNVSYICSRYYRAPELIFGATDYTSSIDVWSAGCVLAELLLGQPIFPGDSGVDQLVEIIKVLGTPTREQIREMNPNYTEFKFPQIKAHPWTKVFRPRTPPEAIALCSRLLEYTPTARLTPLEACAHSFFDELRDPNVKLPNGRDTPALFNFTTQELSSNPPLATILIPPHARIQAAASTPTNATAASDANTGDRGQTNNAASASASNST

Row | SMILES | Selectivity [1] | Selectivity [2] | IC50 [3] | IC50 [4]
1 | O=C1NC(=O)C(c2cnc3ccccn23)=C1c1cn2c3c(cccc13)CN(C(=O)N1CCCCC1)CC2 | 2420 | 281 | 2 nM | 
2 | CN(C)C(=O)N1CCn2cc(C3=C(c4cncc5ccoc45)C(=O)NC3=O)c3cccc(c32)C1 | 112 |  | 1.2 nM | 
3 | O=C1NC(=O)C(c2cn3c4c(cccc24)CNCC3)=C1c1ccc2c(c1)COC2 |  |  | 83 nM | 
4 | O=C1NC(=O)C(c2cnc3cnccn23)=C1c1cn2c3c(cccc13)CN(C(=O)N1CCOCC1)CC2 | 4550 | > 6300 | 3.2 nM | 11 nM
5 | O=C1NC(=O)C(c2cn3c4c(cccc24)CNCC3)=C1c1coc2ccccc12 |  |  | 64 nM | 
6 | CCC(=O)N1CCn2cc(C3=C(c4cncc5ccoc45)C(=O)NC3=O)c3cccc(c32)C1 | 98 | 375 | 1 nM | 
7 | CC(=O)N1CCn2cc(C3=C(c4cccc5ccoc45)C(=O)NC3=O)c3cccc(c32)C1 | 25 | 80 | 1.5 nM | 
8 | CN(C)C(=O)N1CCn2cc(C3=C(c4cccc5ccoc45)C(=O)NC3=O)c3cccc(c32)C1 | 35 | 89 | 2.7 nM | 
9 | O=C1NC(=O)C(c2cnc3ncccn23)=C1c1cn2c3c(cccc13)CN(C(=O)N1CCOCC1)CC2 | 8580 | > 11800 | 1.7 nM | 297 nM
10 | O=C1NC(=O)C(c2cccc3cc[nH]c23)=C1c1cn2c3c(cccc13)CNCC2 |  |  | 150 nM | 
11 | O=C1NC(=O)C(c2cn3c4c(cccc24)CNCC3)=C1c1cccc2occc12 | 1 | 39 | 41 nM | 
12 | CN(C)C(=O)N1CCn2cc(C3=C(c4cccc5c4OCO5)C(=O)NC3=O)c3cccc(c32)C1 | 89 | 190 | 3.2 nM | 
13 | O=C1NC(=O)C(c2cnc3cnccn23)=C1c1cn2c3c(cccc13)CN(C(=O)N1CCCCC1)CC2 | 8920 | > 9500 | 2.1 nM | 8.7 nM
14 | O=C1NC(=O)C(c2cnc3cccnn23)=C1c1cn2c3c(cccc13)CN(C(=O)N1CCCCC1)CC2 [BISARYLMALEIMIDE 1] | 1330 | 1300 | 1.6 nM | 0.3 nM
15 | O=C1NC(=O)C(c2cn3c4c(cccc24)CNCC3)=C1c1cccc2c1ccn2CCCO | 1 | 9 | 27 nM | 
16 | O=C1NC(=O)C(c2ccn3ncccc23)=C1c1cn2c3c(cccc13)CN(C(=O)N1CCOCC1)CC2 | 1900 |  | 1.3 nM | 
17 | O=C1NC(=O)C(c2ccn3ncccc23)=C1c1cn2c3c(cccc13)CNCC2 | 10 | 18 | 30 nM | 
18 | O=C1NC(=O)C(c2cnc3ccncn23)=C1c1cn2c3c(cccc13)CN(C(=O)N1CCOCC1)CC2 | > 282 | > 282 | 71 nM | 
19 | O=C1NC(=O)C(c2cn3c4c(cccc24)CNCC3)=C1c1cccc2c1OCC2 | 7 | 53 | 3.3 nM | 
20 | O=C1NC(=O)C(c2cncc3ccoc23)=C1c1cn2c3c(cccc13)CN(C(=O)N1CCOCC1)CC2 [BISARYLMALEIMIDE 2] | 158 |  | 0.8 nM | 
21 | CN(C)C(=O)N1CCn2cc(C3=C(c4cnc5ccccn45)C(=O)NC3=O)c3cccc(c32)C1 | 907 | 635 | 1.6 nM | 
22 | CC(=O)N1CCn2cc(C3=C(c4cncc5ccoc45)C(=O)NC3=O)c3cccc(c32)C1 | 60 | 422 | 0.9 nM | 
23 | O=C1NC(=O)C(c2cnc3cccnn23)=C1c1cn2c3c(cccc13)CNCC2 | 15 | 133 | 4.8 nM | 

Row | SMILES | Selectivity [1] | Selectivity [2] | IC50 [3] | IC50 [4]
24 | O=C1NC(=O)C(c2cnc3ccccn23)=C1c1cn2c3c(cccc13)CN(C(=O)C1CCOCC1)CC2 | 2650 | 1740 | 0.8 nM | 7.7 nM
25 | O=C1NC(=O)C(c2cn3c4c(cccc24)CNCC3)=C1c1cccc2c1CCO2 |  |  | 130 nM | 
26 | Cn1ccc2c(C3=C(c4cn5c6c(cccc46)CNCC5)C(=O)NC3=O)cccc21 | 1 | 28 | 33 nM | 
27 | O=C1NC(=O)C(c2cnc3ccncn23)=C1c1cn2c3c(cccc13)CNCC2 | 14 | 3 | 330 nM | 
28 | O=C1NC(=O)C(c2cccc3ccoc23)=C1c1cn2c3c(cccc13)CNCC2 | 5 | 183 | 3.4 nM | 
29 | CC(=O)N1CCn2cc(C3=C(c4cccc5ccsc45)C(=O)NC3=O)c3cccc(c32)C1 | 7 | 7 | 19 nM | 
30 | O=C1NC(=O)C(c2cncc3ccoc23)=C1c1cn2c3c(cccc13)CNCC2 | 6 | 54 | 3.2 nM | 
31 | O=C1NC(=O)C(c2cnc3ncccn23)=C1c1cn2c3c(cccc13)CNCC2 | 20 | 112 | 120 nM | 
32 | O=C1NC(=O)C(c2cncc3ccoc23)=C1c1cn2c3c(cccc13)CN(C(=O)N1CCCCC1)CC2 | 92 | 108 | 2.1 nM | 
33 | O=C1NC(=O)C(c2cccc3ccsc23)=C1c1cn2c3c(cccc13)CNCC2 | 1 | 15 | 45 nM | 
34 | O=C1NC(=O)C(c2cnc3ccccn23)=C1c1cn2c3c(cccc13)CNCC2 | 13 | 28 | 12 nM | 
35 | O=C1NC(=O)C(c2cnc3ncccn23)=C1c1cn2c3c(cccc13)CN(C(=O)N1CCCCC1)CC2 | 10000 | > 1060 | 1.9 nM | 53 nM
36 | O=C1NC(=O)C(c2cn3c4c(cccc24)CNCC3)=C1c1cccc2sccc12 |  |  | 34 nM | 
37 | O=C1NC(=O)C(c2cnc3ccccn23)=C1c1cn2c3c(cccc13)CN(C(=O)N1CCOCC1)CC2 |  |  | 1.3 nM | 
38 | CC(C)C(=O)N1CCn2cc(C3=C(c4cnc5ccccn45)C(=O)NC3=O)c3cccc(c32)C1 | 2020 | 522 | 1.8 nM | 5 nM
39 | CC(=O)N1CCn2cc(C3=C(c4cnc5ccccn45)C(=O)NC3=O)c3cccc(c32)C1 | 483 | 457 | 1.9 nM | 111 nM
40 | CN(C)C(=O)N1CCn2cc(C3=C(c4ccn5ncccc45)C(=O)NC3=O)c3cccc(c32)C1 | 370 | 235 | 4.7 nM | 38 nM
41 | O=C1NC(=O)C(c2cn3c4c(cccc24)CNCC3)=C1c1ccc2c(c1)OCO2 | 18 | 202 | 27 nM | 
42 | CC(=O)N1CCn2cc(C3=C(c4cccc5c4OCC5)C(=O)NC3=O)c3cccc(c32)C1 | 77 | 133 | 1.1 nM | 
43 | CC(=O)N1CCn2cc(C3=C(c4cccc5c4OCO5)C(=O)NC3=O)c3cccc(c32)C1 | 50 | 240 | 2.5 nM | 
44 | O=C1NC(=O)C(c2cnc3cnccn23)=C1c1cn2c3c(cccc13)CNCC2 | 19 | > 334 | 60 nM | 
45 | O=C1NC(=O)C(c2cn3c4c(cccc24)CNCC3)=C1c1cccc2c1OCO2 | 2 | 103 | 13 nM | 

— ChEMBL document CHEMBL1141975, “The development of potent and selective bisarylmaleimide GSK3 inhibitors” (Bioorg Med Chem Lett, 2005)
